Measurements as given in PubChem BioAssay (NCI).
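Where inhibition never reached the appropriate level, the endpoint shown equals the highest concentration tested. Otherwise, values were interpolated linearly from a five-concentration, 48-hour dose response in 96-well plates. GI50 is the concentration that inhibits growth by half. The concentration for full growth arrest is given as TGI.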

Experiments:
Assay in all cases: NCI tumour cell line growth inhibition, 48 h
KM12 colon = test system: KM12 colon
CAKI-1 renal = test system: CAKI-1 renal
SNB-19 CNS = test system: SNB-19 CNS
UO-31 renal = test system: UO-31 renal
HCT-15 colon = test system: HCT-15 colon
HCC-2998 colon = test system: HCC-2998 colon
OVCAR-4 ovarian = test system: OVCAR-4 ovarian
SF-539 CNS = test system: SF-539 CNS
SK-MEL-5 melanoma = test system: SK-MEL-5 melanoma
SF-295 CNS = test system: SF-295 CNS
MDA-MB-231 breast = test system: MDA-MB-231 breast
A549 NSCLC = test system: A549 NSCLC
NCI-H460 lung = test system: NCI-H460 lung
SF-268 CNS = test system: SF-268 CNS
T-47D breast = test system: T-47D breast
U251 CNS = test system: U251 CNS
MOLT-4 leukemia = test system: MOLT-4 leukemia
UACC-257 melanoma = test system: UACC-257 melanoma
DLD-1 colon = test system: DLD-1 colon
COLO 205 colon = test system: COLO 205 colon
SNB-75 CNS = test system: SNB-75 CNS
HT29 colon = test system: HT29 colon
OVCAR-3 ovarian = test system: OVCAR-3 ovarian
786-0 renal = test system: 786-0 renal
RXF 393 renal = test system: RXF 393 renal
HL-60(TB) leukemia = test system: HL-60(TB) leukemia
LOX IMVI melanoma = test system: LOX IMVI melanoma
SN12K1 renal = test system: SN12K1 renal
K-562 leukemia = test system: K-562 leukemia
DMS 273 small cell lung = test system: DMS 273 small cell lung
P388 leukemia = test system: P388 leukemia
HOP-62 NSCLC = test system: HOP-62 NSCLC
MDA-N = test system: MDA-N
OVCAR-8 ovarian = test system: OVCAR-8 ovarian
NCI-H226 lung = test system: NCI-H226 lung
SW-620 colon = test system: SW-620 colon
NCI-H23 lung = test system: NCI-H23 lung
NCI/ADR-RES ovarian = test system: NCI/ADR-RES ovarian
SK-MEL-28 melanoma = test system: SK-MEL-28 melanoma
HOP-18 NSCLC = test system: HOP-18 NSCLC
IGROV1 ovarian = test system: IGROV1 ovarian
HOP-92 NSCLC = test system: HOP-92 NSCLC
SNB-78 CNS = test system: SNB-78 CNS
MDA-MB-435 = test system: MDA-MB-435
DU-145 prostate = test system: DU-145 prostate
SN12C renal = test system: SN12C renal
P388/ADR leukemia = test system: P388/ADR leukemia
CCRF-CEM leukemia = test system: CCRF-CEM leukemia
HS 578T breast = test system: HS 578T breast
PC-3 prostate = test system: PC-3 prostate
RPMI-8226 leukemia = test system: RPMI-8226 leukemia
EKVX NSCLC = test system: EKVX NSCLC
OVCAR-5 ovarian = test system: OVCAR-5 ovarian
SR leukemia = test system: SR leukemia
A498 renal = test system: A498 renal
TK-10 renal = test system: TK-10 renal
BT-549 breast = test system: BT-549 breast
SK-OV-3 ovarian = test system: SK-OV-3 ovarian
SK-MEL-2 melanoma = test system: SK-MEL-2 melanoma
ACHN renal = test system: ACHN renal
UACC-62 melanoma = test system: UACC-62 melanoma
MCF7 breast = test system: MCF7 breast
NCI-H522 lung = test system: NCI-H522 lung
HCT-116 colon = test system: HCT-116 colon
M14 melanoma = test system: M14 melanoma
MALME-3M melanoma = test system: MALME-3M melanoma
KM20L2 colon = test system: KM20L2 colon
M19-MEL melanoma = test system: M19-MEL melanoma
LXFL 529 NSCLC = test system: LXFL 529 NSCLC
RXF-631 renal = test system: RXF-631 renal
DMS 114 small cell lung = test system: DMS 114 small cell lung
XF 498 CNS = test system: XF 498 CNS

O=[N+]([O-])O.[Ga]
TGI (KM12 colon): > 10000 µM
TGI (CAKI-1 renal): > 9820 µM
TGI (SNB-19 CNS): > 10000 µM
TGI (UO-31 renal): > 7740 µM
TGI (HCT-15 colon): 5780 µM
TGI (HCC-2998 colon): > 5620 µM
TGI (OVCAR-4 ovarian): 5040 µM
TGI (SF-539 CNS): > 10000 µM
TGI (SK-MEL-5 melanoma): 1310 µM
TGI (SF-295 CNS): 1240 µM
TGI (MDA-MB-231 breast): > 10000 µM
TGI (A549 NSCLC): > 10000 µM
TGI (NCI-H460 lung): 8990 µM
GI50 (SF-268 CNS): 3000 µM
TGI (SF-268 CNS): > 10000 µM
TGI (T-47D breast): > 9010 µM
TGI (U251 CNS): 4930 µM
TGI (MOLT-4 leukemia): 2130 µM
TGI (UACC-257 melanoma): > 10000 µM
GI50 (DLD-1 colon): 3500 µM
TGI (DLD-1 colon): > 10000 µM
TGI (COLO 205 colon): > 9550 µM
GI50 (SNB-75 CNS): 1250 µM
TGI (SNB-75 CNS): > 7110 µM
TGI (HT29 colon): > 7200 µM
TGI (OVCAR-3 ovarian): 6920 µM
TGI (786-0 renal): > 10000 µM
TGI (RXF 393 renal): > 9480 µM
TGI (HL-60(TB) leukemia): 1780 µM
TGI (LOX IMVI melanoma): > 8240 µM
GI50 (SN12K1 renal): 1210 µM
TGI (SN12K1 renal): 6000 µM
TGI (K-562 leukemia): > 8480 µM
GI50 (DMS 273 small cell lung): 470 µM
TGI (DMS 273 small cell lung): 6900 µM
GI50 (P388 leukemia): 1680 µM
TGI (P388 leukemia): > 10000 µM
TGI (HOP-62 NSCLC): 1960 µM
TGI (MDA-N): > 10000 µM
TGI (OVCAR-8 ovarian): > 7940 µM
TGI (NCI-H226 lung): 9510 µM
TGI (SW-620 colon): > 10000 µM
GI50 (NCI-H23 lung): 1260 µM
TGI (NCI-H23 lung): > 10000 µM
TGI (NCI/ADR-RES ovarian): > 10000 µM
TGI (SK-MEL-28 melanoma): > 10000 µM
GI50 (HOP-18 NSCLC): 5210 µM
TGI (HOP-18 NSCLC): > 9360 µM
TGI (IGROV1 ovarian): > 7220 µM
GI50 (HOP-92 NSCLC): 673 µM
TGI (HOP-92 NSCLC): 3700 µM
GI50 (SNB-78 CNS): > 4220 µM
TGI (SNB-78 CNS): > 4980 µM
TGI (MDA-MB-435): > 10000 µM
TGI (DU-145 prostate): > 10000 µM
TGI (SN12C renal): 6890 µM
GI50 (P388/ADR leukemia): 712 µM
TGI (P388/ADR leukemia): > 3030 µM
TGI (CCRF-CEM leukemia): 3190 µM
TGI (HS 578T breast): > 10000 µM
TGI (PC-3 prostate): > 10000 µM
TGI (RPMI-8226 leukemia): 2270 µM
TGI (EKVX NSCLC): 5620 µM
TGI (OVCAR-5 ovarian): 5070 µM
TGI (SR leukemia): > 10000 µM
TGI (A498 renal): 2590 µM
TGI (TK-10 renal): > 7990 µM
TGI (BT-549 breast): > 4640 µM
TGI (SK-OV-3 ovarian): 390 µM
GI50 (SK-MEL-2 melanoma): 325 µM
TGI (SK-MEL-2 melanoma): 3270 µM
TGI (ACHN renal): > 10000 µM
GI50 (UACC-62 melanoma): 892 µM
TGI (UACC-62 melanoma): > 10000 µM
TGI (MCF7 breast): 6200 µM
TGI (NCI-H522 lung): 4490 µM
TGI (HCT-116 colon): > 10000 µM
TGI (M14 melanoma): > 10000 µM
TGI (MALME-3M melanoma): 1320 µM
GI50 (KM20L2 colon): 1270 µM
TGI (KM20L2 colon): > 10000 µM

CCOC(=O)c1cn(Cc2ccccc2)c(=O)n1Cc1ccccc1
TGI (KM12 colon): > 100 µM
TGI (M19-MEL melanoma): > 100 µM
TGI (CAKI-1 renal): > 100 µM
TGI (SNB-19 CNS): > 100 µM
TGI (UO-31 renal): > 100 µM
TGI (HCT-15 colon): > 100 µM
TGI (HCC-2998 colon): > 100 µM
TGI (OVCAR-4 ovarian): > 100 µM
TGI (SF-539 CNS): > 100 µM
TGI (SK-MEL-5 melanoma): > 100 µM
TGI (SF-295 CNS): > 100 µM
TGI (A549 NSCLC): > 100 µM
TGI (NCI-H460 lung): > 100 µM
TGI (LXFL 529 NSCLC): > 100 µM
TGI (SF-268 CNS): > 100 µM
TGI (U251 CNS): > 100 µM
TGI (MOLT-4 leukemia): > 100 µM
TGI (UACC-257 melanoma): > 100 µM
TGI (DLD-1 colon): > 100 µM
TGI (COLO 205 colon): > 100 µM
TGI (SNB-75 CNS): > 100 µM
TGI (HT29 colon): > 100 µM
TGI (OVCAR-3 ovarian): > 100 µM
TGI (786-0 renal): > 100 µM
TGI (RXF 393 renal): > 100 µM
TGI (HL-60(TB) leukemia): > 100 µM
TGI (LOX IMVI melanoma): > 100 µM
TGI (K-562 leukemia): > 100 µM
TGI (DMS 273 small cell lung): > 100 µM
TGI (HOP-62 NSCLC): > 100 µM
TGI (OVCAR-8 ovarian): > 100 µM
TGI (NCI-H226 lung): > 100 µM
TGI (SW-620 colon): > 100 µM
TGI (NCI-H23 lung): > 100 µM
TGI (SK-MEL-28 melanoma): > 100 µM
TGI (HOP-18 NSCLC): > 100 µM
TGI (IGROV1 ovarian): > 100 µM
TGI (RXF-631 renal): > 100 µM
TGI (HOP-92 NSCLC): > 100 µM
TGI (SNB-78 CNS): > 100 µM
TGI (DMS 114 small cell lung): > 100 µM
TGI (SN12C renal): > 100 µM
TGI (CCRF-CEM leukemia): > 100 µM
TGI (XF 498 CNS): > 100 µM
TGI (RPMI-8226 leukemia): > 100 µM
TGI (EKVX NSCLC): > 100 µM
TGI (OVCAR-5 ovarian): > 100 µM
TGI (A498 renal): > 100 µM
TGI (TK-10 renal): > 100 µM
TGI (SK-OV-3 ovarian): > 100 µM
TGI (SK-MEL-2 melanoma): > 100 µM
TGI (ACHN renal): > 100 µM
TGI (UACC-62 melanoma): > 100 µM
TGI (NCI-H522 lung): > 100 µM
TGI (HCT-116 colon): > 100 µM
TGI (M14 melanoma): > 100 µM
TGI (MALME-3M melanoma): > 100 µM
TGI (KM20L2 colon): > 100 µM
